# Source: PMC6199744, “Development of Chemical Proteomics for the Folateome and Analysis of the Kinetoplastid Folateome” (ACS Infectious Diseases, 2018)
# Read-outs that look alike come from different tables or passages of the source.
# Key:
# Format in all cases: binding
# [1] = target: T1, HeLa cell extract proteins (Homo sapiens, UniProt P30048); settings: protein PRDX3; HeLa
# T1 construct: endogenous in cells; host or cells: HeLa cell extract
# T1 sequence (P30048 62-256): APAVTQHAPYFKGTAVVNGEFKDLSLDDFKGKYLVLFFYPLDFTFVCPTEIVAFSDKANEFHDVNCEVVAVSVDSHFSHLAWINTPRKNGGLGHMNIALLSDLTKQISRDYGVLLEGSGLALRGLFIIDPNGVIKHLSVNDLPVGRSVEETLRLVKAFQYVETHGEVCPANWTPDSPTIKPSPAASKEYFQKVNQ
# [2] = target: T2, HeLa cell extract proteins (Homo sapiens, UniProt P35237); settings: protein SERPINB6; HeLa
# T2 construct: endogenous in cells; host or cells: HeLa cell extract
# T2 sequence (P35237 1-376): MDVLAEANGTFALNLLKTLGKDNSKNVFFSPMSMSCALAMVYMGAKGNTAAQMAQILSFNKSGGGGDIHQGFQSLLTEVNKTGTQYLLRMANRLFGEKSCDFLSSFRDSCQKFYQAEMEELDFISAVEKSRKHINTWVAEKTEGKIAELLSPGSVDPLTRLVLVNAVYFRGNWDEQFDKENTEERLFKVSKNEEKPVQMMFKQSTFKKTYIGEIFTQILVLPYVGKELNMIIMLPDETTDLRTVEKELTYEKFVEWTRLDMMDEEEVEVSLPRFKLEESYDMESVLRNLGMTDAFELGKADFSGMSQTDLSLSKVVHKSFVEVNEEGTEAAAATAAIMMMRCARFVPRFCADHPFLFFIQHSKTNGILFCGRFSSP
# [3] = target: T3, HeLa cell extract proteins (Homo sapiens, UniProt P62495); settings: protein ETF1; HeLa
# T3 construct: endogenous in cells; host or cells: HeLa cell extract
# [4] = target: T4, HeLa cell extract proteins (Homo sapiens, UniProt P68371); settings: captured protein TUBB2C; HeLa
# T4 construct: endogenous in cells; host or cells: HeLa cell extract
# [5] = target: T5, HeLa cell extract proteins (Homo sapiens, UniProt P35613)
# T5 construct: endogenous in cells; host or cells: HeLa cell extract
# T5 sequence (P35613 22-385): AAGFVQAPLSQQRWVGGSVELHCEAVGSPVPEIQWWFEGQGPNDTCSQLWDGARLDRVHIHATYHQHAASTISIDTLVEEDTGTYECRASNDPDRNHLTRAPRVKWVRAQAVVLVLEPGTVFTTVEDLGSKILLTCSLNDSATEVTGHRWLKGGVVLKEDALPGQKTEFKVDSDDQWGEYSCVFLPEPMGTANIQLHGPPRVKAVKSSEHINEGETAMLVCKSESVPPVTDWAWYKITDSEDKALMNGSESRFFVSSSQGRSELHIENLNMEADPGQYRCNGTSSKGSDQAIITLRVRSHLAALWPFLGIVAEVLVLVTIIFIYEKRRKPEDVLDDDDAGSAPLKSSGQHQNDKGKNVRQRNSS
# [6] = target: T6, HeLa cell extract proteins (Homo sapiens, UniProt P30046)
# T6 construct: endogenous in cells; host or cells: HeLa cell extract
# [7] = target: T7, HeLa cell extract proteins (Homo sapiens, UniProt Q10570)
# T7 construct: endogenous in cells; host or cells: HeLa cell extract
# T7 sequence (Q10570 1-1443): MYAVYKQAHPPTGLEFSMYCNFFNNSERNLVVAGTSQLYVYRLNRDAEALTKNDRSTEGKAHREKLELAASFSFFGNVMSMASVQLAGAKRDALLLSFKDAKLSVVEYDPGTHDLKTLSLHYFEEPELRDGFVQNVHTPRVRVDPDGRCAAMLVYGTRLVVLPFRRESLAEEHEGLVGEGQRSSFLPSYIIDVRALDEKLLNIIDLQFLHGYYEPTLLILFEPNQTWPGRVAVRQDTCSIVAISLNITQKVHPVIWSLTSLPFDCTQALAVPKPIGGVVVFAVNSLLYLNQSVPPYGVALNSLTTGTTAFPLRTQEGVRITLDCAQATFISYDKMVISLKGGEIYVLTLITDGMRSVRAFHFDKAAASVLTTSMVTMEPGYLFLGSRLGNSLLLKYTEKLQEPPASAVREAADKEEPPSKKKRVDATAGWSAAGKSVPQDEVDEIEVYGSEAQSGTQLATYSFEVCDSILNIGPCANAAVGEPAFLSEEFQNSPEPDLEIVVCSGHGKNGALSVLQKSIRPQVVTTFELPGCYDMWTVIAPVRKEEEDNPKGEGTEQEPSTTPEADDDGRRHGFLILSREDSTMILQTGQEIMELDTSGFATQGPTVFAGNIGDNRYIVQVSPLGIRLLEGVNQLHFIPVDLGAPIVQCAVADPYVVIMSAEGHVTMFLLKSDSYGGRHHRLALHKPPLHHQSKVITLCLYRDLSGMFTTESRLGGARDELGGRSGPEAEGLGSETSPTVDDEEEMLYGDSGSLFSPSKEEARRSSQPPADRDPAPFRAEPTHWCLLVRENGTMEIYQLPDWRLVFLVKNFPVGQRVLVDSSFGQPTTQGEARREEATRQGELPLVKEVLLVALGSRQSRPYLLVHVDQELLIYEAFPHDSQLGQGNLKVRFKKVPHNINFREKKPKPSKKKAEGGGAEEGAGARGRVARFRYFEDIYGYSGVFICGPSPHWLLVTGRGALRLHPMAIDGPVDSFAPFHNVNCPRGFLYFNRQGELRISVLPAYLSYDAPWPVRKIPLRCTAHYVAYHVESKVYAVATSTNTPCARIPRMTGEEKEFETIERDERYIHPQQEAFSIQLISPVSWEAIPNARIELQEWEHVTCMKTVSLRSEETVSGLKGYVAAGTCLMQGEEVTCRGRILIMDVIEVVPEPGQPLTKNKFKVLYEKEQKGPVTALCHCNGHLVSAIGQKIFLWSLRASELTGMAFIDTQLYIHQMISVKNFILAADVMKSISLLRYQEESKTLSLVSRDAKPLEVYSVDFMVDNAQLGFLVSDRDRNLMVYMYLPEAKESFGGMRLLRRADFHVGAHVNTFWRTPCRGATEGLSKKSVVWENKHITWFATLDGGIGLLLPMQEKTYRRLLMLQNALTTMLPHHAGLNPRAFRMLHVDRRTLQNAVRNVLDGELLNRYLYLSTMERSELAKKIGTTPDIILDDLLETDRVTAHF
# [8] = target: T8, HeLa cell extract proteins (Homo sapiens, UniProt P52294)
# T8 construct: endogenous in cells; host or cells: HeLa cell extract
# T8 sequence (P52294 whole entry): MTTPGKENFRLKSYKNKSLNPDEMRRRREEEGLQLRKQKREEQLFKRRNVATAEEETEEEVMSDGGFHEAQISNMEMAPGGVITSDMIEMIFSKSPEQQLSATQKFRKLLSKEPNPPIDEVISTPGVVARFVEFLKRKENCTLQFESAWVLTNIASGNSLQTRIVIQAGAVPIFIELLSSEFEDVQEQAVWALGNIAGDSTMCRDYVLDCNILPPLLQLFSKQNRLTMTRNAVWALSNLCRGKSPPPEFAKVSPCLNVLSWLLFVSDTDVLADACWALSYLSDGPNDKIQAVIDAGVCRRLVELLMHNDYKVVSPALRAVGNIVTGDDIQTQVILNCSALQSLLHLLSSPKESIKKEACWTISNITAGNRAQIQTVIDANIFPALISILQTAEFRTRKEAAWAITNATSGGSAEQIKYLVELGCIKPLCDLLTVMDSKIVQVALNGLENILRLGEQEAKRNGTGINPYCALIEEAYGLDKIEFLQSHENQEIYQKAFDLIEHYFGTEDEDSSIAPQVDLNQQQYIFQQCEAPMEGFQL
# T4 sequence (P68371 whole entry): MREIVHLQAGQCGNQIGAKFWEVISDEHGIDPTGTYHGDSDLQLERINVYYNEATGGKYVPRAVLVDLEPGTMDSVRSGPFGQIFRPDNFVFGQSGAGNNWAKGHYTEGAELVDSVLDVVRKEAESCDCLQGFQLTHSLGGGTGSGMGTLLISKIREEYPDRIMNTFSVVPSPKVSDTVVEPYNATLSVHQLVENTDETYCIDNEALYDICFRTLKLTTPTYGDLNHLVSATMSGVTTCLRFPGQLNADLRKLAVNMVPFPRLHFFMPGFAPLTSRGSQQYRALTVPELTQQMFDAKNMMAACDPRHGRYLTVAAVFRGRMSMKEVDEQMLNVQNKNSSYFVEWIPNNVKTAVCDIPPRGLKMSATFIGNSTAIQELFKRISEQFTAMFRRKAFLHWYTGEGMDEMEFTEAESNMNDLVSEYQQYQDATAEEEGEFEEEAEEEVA
# T6 sequence (P30046 whole entry): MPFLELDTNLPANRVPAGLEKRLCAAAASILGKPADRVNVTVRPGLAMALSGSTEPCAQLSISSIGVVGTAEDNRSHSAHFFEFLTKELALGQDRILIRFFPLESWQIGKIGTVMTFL
SMILES,fold changes relative to vehicle control [1],fold changes relative to vehicle control [2],fold changes relative to vehicle control [3],fold changes relative to vehicle control [4],"fold changes relative to vehicle control ([5]; protein BSG, HeLa)","fold changes relative to vehicle control ([6]; HeLa, captured protein DDT)","fold changes relative to vehicle control ([7]; HeLa, captured protein CPSF1)","fold changes relative to vehicle control ([8]; HeLa, protein KPNA1)",also measured
Nc1nc2cccc(-c3ccccc3)c2n1Cc1ccc(Cl)c(Cl)c1 [compound 3],0.99,0.92,1.24,1.02,,,,,
CCCCCCOc1ccc(Cc2cnc(N)nc2N)cc1 [compound 1],1.11,1.14,1.08,1.03,,,,,
NCCCNc1ccc(C(=O)NC(CCC(=O)O)C(=O)O)cc1 (stereo not shown) [compound 7],,,,,0.8,1.25,0.93,0.93,
CCCCCCOc1cccc(Cc2cnc(N)nc2N)c1 [compound 2],1.52,1.61,1.92,0.94,,,,,
NCCOCCOCC(=O)Nc1nc2ncc(CNc3ccc(C(=O)NC(CCC(=O)O)C(=O)O)cc3)nc2c(=O)[nH]1 (stereo not shown) [compound 6],,,,,1.02,1.79,0.97,0.98,
"Nc1nc2[nH]cc(CCc3ccc(C(=O)N[C@@H](CCC(=O)O)C(=O)O)cc3)c2c(=O)[nH]1 [PTX, pemetrexed]",,,,,,,,,fold changes relative to vehicle control [5]: 0.88; fold changes relative to vehicle control [6]: 1.49; fold changes relative to vehicle control [7]: 0.88; fold changes relative to vehicle control [8]: 0.87
"Nc1nc2c(c(=O)[nH]1)N(C=O)C(CNc1ccc(C(=O)N[C@@H](CCC(=O)O)C(=O)O)cc1)CN2 (stereo partly shown) [LEU, leucovorin]",,,,,0.87,1.06,0.95,0.9,
